ChEMBL document CHEMBL1150833, “Five novel highly oxygenated diterpenes of Orthosiphon stamineus from Myanmar” (2001)
In brackets after ≈: the same amount, converted by molar mass.

Legend:
[1] = Antiproliferative activity against mouse Colon 26-L5 cells after 4 days by MTT assay; type: functional; details: 96 h, read-out: ED50 (the source's name)
HT-1080 = assay: Antiproliferative activity against human HT1080 cells after 4 days by MTT assay; type: functional; details: HT-1080, 96 h, read-out: ED50 (the source's name)

Compound | EC50 [1] | EC50 (HT-1080)
COc1ccc(-c2cc(=O)c3c(O)c(OC)c(OC)cc3o2)cc1O [EUPATORIN] | 3.7 µg/mL (≈ 10.7 µM) | 8.8 µg/mL (≈ 25.6 µM)
COc1ccc(-c2cc(=O)c3c(OC)c(OC)c(OC)cc3o2)cc1 | 8.1 µg/mL (≈ 23.7 µM) | 4.5 µg/mL (≈ 13.1 µM)
COc1ccc(-c2cc(=O)c3c(O)c(O)c(OC)cc3o2)cc1 [LADANEIN] | 2.3 µg/mL (≈ 7.32 µM) | 3 µg/mL (≈ 9.55 µM)
C=C/C(=C\[C@H]1C(=O)[C@H](OC(C)=O)C[C@H]2C(C)(C)[C@H](O)[C@H](OC(C)=O)[C@H](OC(=O)c3ccccc3)[C@]12C)C(C)=O [NORSTAMINONE A] | 12.8 µg/mL (≈ 23.7 µM) | 23.2 µg/mL (≈ 42.9 µM)
COc1ccc(-c2cc(=O)c3cc(OC)c(OC)c(OC)c3o2)cc1OC | 31.4 µg/mL (≈ 84.3 µM) | 74.8 µg/mL (≈ 201 µM)
C=C[C@@]1(C)C[C@@H](OC(=O)c2ccccc2)[C@H]2[C@](O)(C1=O)[C@H](OC(C)=O)C[C@H]1C(C)(C)[C@H](OC(C)=O)[C@H](O)[C@H](OC(=O)c3ccccc3)[C@@]12C [ORTHOSIPHOL B] | 28.1 µg/mL (≈ 41.5 µM) | 57.9 µg/mL (≈ 85.6 µM)
C=C[C@@]1(C)CC(=O)[C@H]2[C@](O)(C1=O)[C@H](OC(C)=O)C[C@H]1C(C)(C)[C@H](O)[C@H](OC(C)=O)[C@H](OC(=O)c3ccccc3)[C@@]12C [ORTHOSIPHOL M] | 31.3 µg/mL (≈ 54.9 µM) | 81.7 µg/mL (≈ 143 µM)
C=C[C@@]1(C)C[C@@H](OC(=O)c2ccccc2)[C@H]2[C@](O)(C1=O)[C@H](OC(C)=O)C[C@H]1C(C)(C)[C@H](O)[C@H](OC(C)=O)[C@H](OC(=O)c3ccccc3)[C@@]12C [ORTHOSIPHOL A] | 63.1 µg/mL (≈ 93.2 µM) | > 100 µg/mL
O=c1[nH]cc(F)c(=O)[nH]1 [FLUOROURACIL] | 0.015 µg/mL (≈ 0.115 µM) | 0.48 µg/mL (≈ 3.69 µM)
COc1cc(/C=C/C(=O)OCCc2ccc(O)cc2)ccc1O | 33.7 µg/mL (≈ 107 µM) | 47.1 µg/mL (≈ 150 µM)
C=C[C@H]1[C@@H](OC(=O)c2ccccc2)[C@H]2[C@](O)(C(=O)[C@@]1(C)O)[C@H](OC(C)=O)C[C@H]1C(C)(C)[C@H](O)[C@H](OC(C)=O)[C@H](OC(=O)c3ccccc3)[C@@]12C [NEOORTHOSIPHOL A] | 38.8 µg/mL (≈ 56 µM) | 96.3 µg/mL (≈ 139 µM)
C=C[C@@]1(C)C[C@@H](OC(=O)c2ccccc2)[C@H]2[C@](O)(C1=O)[C@H](OC(C)=O)C[C@H]1C(C)(C)[C@H](O)[C@H](O)[C@H](OC(=O)c3ccccc3)[C@@]12C [ORTHOSIPHOL K] | 13.8 µg/mL (≈ 21.7 µM) | 21.8 µg/mL (≈ 34.3 µM)
C=C[C@@]1(C)CC(=O)[C@H]2[C@](O)(C1=O)[C@H](O)C[C@H]1C(C)(C)[C@H](OC(=O)c3ccccc3)[C@H](OC(C)=O)[C@H](OC(=O)c3ccccc3)[C@@]12C [ORTHOSIPHOL N] | 35.1 µg/mL (≈ 55.5 µM) | 18.6 µg/mL (≈ 29.4 µM)
C=C[C@]1(C)C(=O)[C@]2(O)[C@H](OC(C)=O)C[C@H]3C(C)(C)[C@H](O)[C@H](OC(C)=O)[C@H](OC(=O)c4ccccc4)[C@]3(C)[C@H]2[C@H](OC(=O)c2ccccc2)[C@@H]1O [ORTHOSIPHOL L] | 24.7 µg/mL (≈ 35.7 µM) | 20.6 µg/mL (≈ 29.7 µM)
